Measured values taken from ChEMBL document CHEMBL5728584, “Bicyclic amide compounds and methods of use thereof” (2021).

Target: T1, Receptor-interacting serine/threonine-protein kinase 1 (Homo sapiens, UniProt Q13546)
T1 sequence (Q13546 whole entry): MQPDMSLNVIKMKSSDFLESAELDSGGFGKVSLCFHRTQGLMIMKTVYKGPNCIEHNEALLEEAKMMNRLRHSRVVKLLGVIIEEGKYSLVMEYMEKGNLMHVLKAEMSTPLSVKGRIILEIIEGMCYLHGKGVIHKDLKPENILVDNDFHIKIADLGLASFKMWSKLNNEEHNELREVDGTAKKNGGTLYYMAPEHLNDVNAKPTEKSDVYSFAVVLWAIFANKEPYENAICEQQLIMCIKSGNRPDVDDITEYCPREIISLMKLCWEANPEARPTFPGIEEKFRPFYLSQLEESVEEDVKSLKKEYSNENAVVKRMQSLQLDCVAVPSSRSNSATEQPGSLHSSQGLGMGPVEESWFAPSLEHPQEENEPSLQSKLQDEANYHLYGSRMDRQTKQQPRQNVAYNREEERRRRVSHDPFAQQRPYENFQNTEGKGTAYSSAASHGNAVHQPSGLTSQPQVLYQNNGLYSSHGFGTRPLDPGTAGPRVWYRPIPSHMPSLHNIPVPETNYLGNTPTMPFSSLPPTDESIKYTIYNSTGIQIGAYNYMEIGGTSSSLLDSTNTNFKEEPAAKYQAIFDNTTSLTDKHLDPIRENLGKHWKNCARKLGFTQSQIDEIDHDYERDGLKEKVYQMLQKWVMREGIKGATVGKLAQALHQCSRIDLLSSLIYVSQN
Experiment: Biochemical Assay: The ability of the receptor interacting protein kinase (RIPK1) to catalyze the hydrolysis of adenosine-5′-triphosphate (ATP) is monitored using the Transcreener ADP (adenosine-5′-diphosphate) assay (BellBrook Labs). Purified human RIP1 kinase domain (2-375) (50 nM) derived from a baculovirus-infected insect cell expression system is incubated with test compounds for 2 hours in 50 mM Hepes buffer (pH 7.5) containing 30 mM MgCl2, 1 mM dithiothreitol, 50 uM ATP, 0.002% Brij-35, and 0.5% dimethyl sulfoxide (DMSO). Reactions are quenched by the addition of 1× Bell Brooks Stop buffer B (20 mM Hepes (ph7.5), 40 mM ethylenediaminetetraacetic acid and 0.02% Brij-35) containing an additional 12 mM EDTA and 55 ug/mL ADP2 antibody and 4 nM ADP-AlexaFluor® 633 tracer. The tracer bound to the antibody is displaced by the ADP generated during the RIP1K reaction, which causes a decrease in fluorescence polarization that is measured by laser excitation at 633 nm with a FP microplate reader M1000.

Ki: 2100 nM
SMILES: O=C(c1nc2n(n1)CCOC2c1ccccc1)N1CC(F)C1 (racemic)
